The values below come from paper PMC11394167, “Purification and Identification of Novel Dipeptidyl Peptidase IV Inhibitory Peptides Derived from Bighead Carp (Hypophthalmichthys nobilis)” (Foods, 2024).

The target of data set [1] is T1, DPP-IV (Homo sapiens, UniProt P27487).
T1 construct: purchased Abnova KA1311
As to conditions: cited from earlier work. From the text: Diabetes is a chronic disease marked by high blood sugar levels and disruptions in fat and protein metabolism due to insulin resistance and deficiency. It is categorized into three types: type 1, type 2, and gestational diabetes. As reported by the International Diabetes Federation (IDF), approximately 537 million adults (aged 20–79 years) were living with diabetes in 2021, a number expected to rise to 700 million by 2045 [7]. Type 2 diabetes mellitus (T2DM) constitutes about 90% of these cases. Without treatment, T2DM can lead to severe complications such as coronary issues, retinopat ... || The results of mass spectrometry identification guided the screening of peptide sequences based on certain criteria. […] In the current landscape of research aiming to identify DPP-IV inhi ...

Data set [2] concerns the target T1, DPP-IV. The data set can be described thus: DPP-IV inhibitor screening assay (KA1311 kit, Gly-Pro-AMC). As to conditions: synthetic peptides; 37 °C, 30 min; Gly-Pro-AMC substrate; fluorescence ex 350 nm / em 460 nm; mean ± standard deviation (n = 3); read-out: IC50 (DPP-IV inhibition). It counts as biochemical. On the procedure: The DPP-IV inhibition rate and the corresponding IC50 of each component were determined using the DPP-IV inhibitor screening assay kit (KA1311, Abnova, Taipei, Taiwan, China). For each component, extracts were mixed with buffer solution at various concentrations (1 mg/mL, 0.1 mg/mL, 0.05 mg/mL, 0.01 mg/mL), DPP-IV, and the substrate (Gly-Pro-AMC solution) in 96-well plates. The reaction was conducted at the normal human body temperature of 37 °C for 30 min. Free AMC (7-amino-4-methylcoumarin) was quantified using a multifunctional fluorescent zymography assay, with excitation light at 350 nm and emission light at 460 nm, and expressed as fluorescence intensity. The positive control utilized was 1 μg/mL of […]. A standard curve for all inhibition rates was plotted, and the maximum half inhibitory concentration (IC50) value of each peptide was determined using GraphPad Prism 9.5.1. DPP-IV inhibition (%) = {(F initial activity − F sample)/F initial activity} × 100%(2)
The DPP-IV inhibitory activity assay was performed in three parallel groups, and IC50 data were expressed as the mean ± standard deviation (S.D.). Data were analyzed using SPSS 20.0 software (SPSS Inc., Chicago, IL, USA) for unifactorial and bifactorial analyses, and the significance of the data was indicated by p < 0.05.

Data set [3] addresses T1, DPP-IV. The data set can be described thus: DPP-IV inhibition pattern (Lineweaver–Burk plots). It counts as biochemical. As to conditions: substrate 20, 15, 10, 5, 1 μM, peptide greater than IC50, less than IC50, and 0. As to the method: The pattern of DPP4 inhibition of synthetic peptides was further analyzed using Lineweaver–Burk plots. Images were plotted at different concentrations of substrates (20, 15, 10, 5, 1 μM) and peptide solution (concentration was greater than IC50, less than IC50, and 0) with 1/[S] as the X-value and 1/V as the Y-value. The mode of inhibition of DPP-IV by the synthetic peptide was determined based on the intercept of the Lineweaver–Burk curve.

The conditions of data set [4]: side effects such as nausea; cited from earlier work. From the text:
Diabetes is a chronic disease marked by high blood sugar levels and disruptions in fat and protein metabolism due to insulin resistance and deficiency. It is categorized into three types: type 1, type 2, and gestational diabetes. As reported by the International Diabetes Federation (IDF), approximately 537 million adults (aged 20–79 years) were living with diabetes in 2021, a number expected to rise to 700 million by 2045 [7]. Type 2 diabetes mellitus (T2DM) constitutes about 90% of these cases. Without treatment, T2DM can lead to severe complications such as coronary issues, retinopat ...

Like-named read-outs stand apart in the source and are kept apart here. Where a SMILES comes first, the peptide text is derived from it.

T1 sequence (P27487 whole entry): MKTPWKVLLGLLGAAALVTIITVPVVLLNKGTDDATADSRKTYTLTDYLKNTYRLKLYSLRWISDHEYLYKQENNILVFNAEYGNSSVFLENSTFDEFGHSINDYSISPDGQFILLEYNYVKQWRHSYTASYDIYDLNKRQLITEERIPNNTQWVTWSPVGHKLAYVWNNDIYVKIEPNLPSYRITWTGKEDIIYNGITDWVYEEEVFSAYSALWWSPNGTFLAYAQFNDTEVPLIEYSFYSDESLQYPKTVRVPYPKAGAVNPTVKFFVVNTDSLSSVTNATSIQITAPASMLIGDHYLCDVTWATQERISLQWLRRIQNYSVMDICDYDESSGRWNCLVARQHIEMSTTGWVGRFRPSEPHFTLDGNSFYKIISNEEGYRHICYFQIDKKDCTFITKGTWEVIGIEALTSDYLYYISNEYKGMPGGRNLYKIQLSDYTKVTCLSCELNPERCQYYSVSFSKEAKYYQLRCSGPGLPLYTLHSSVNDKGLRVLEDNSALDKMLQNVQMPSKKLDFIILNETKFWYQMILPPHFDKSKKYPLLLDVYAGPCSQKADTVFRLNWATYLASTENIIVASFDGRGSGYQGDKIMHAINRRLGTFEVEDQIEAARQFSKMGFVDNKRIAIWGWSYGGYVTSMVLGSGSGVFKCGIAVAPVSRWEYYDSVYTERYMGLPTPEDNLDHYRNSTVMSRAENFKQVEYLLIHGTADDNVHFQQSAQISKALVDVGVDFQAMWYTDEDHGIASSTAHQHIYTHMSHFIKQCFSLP

Broadly, the IC50 is the concentration at which inhibition is half-maximal. “GPAG [peptide (300.4 Da) from pig skin gelatin hydrolysate]”: the IC50 with DPP-IV [1] (peptides from pig skin gelatin hydrolysate) was 41.9 µM.

In the case of “YPFPGP [previously reported peptide extracted from milk]”, the concentration for half-maximal inhibition (IC50) with DPP-IV [1] (extracted from milk) is 749 µM. For the compound “WGDEHIPGSPYH [previously reported peptide from silver carp]”, the IC50 in the data set with DPP-IV [1] (from silver carp) was 350 µM.

In the case of `CC(C)[C@H](NC(=O)[C@@H](N)Cc1ccccc1)C(=O)N[C@@H](C)C(=O)O` [FVA] (H-Phe-Val-Ala-OH), at DPP-IV [2], the IC50 came to 0.402 ± 0.00528 µM. At DPP-IV [3], the “effect on Km” value is “increased Km”. `O=C(CNC(=O)[C@@H]1CCCN1C(=O)[C@@H]1CCCN1)N[C@@H](Cc1ccccc1)C(=O)O` [PPGF] (H-PPGF-OH): the concentration for half-maximal inhibition (IC50) on DPP-IV [2] was found to be 0.00463 ± 0.00156 µM. Turning to `CC(C)C[C@H](NC(=O)CNC(=O)[C@@H]1CCCN1)C(=O)N[C@H](C(=O)NCC(=O)O)C(C)C` [PGLVG] (H-PGLVG-OH), the 50% inhibitory concentration (IC50) on DPP-IV [2] was 0.11 ± 0.0431 µM. On DPP-IV [3], the “effect on Km” value is on record as “Km is increased”. IPSK: the DPP-IV inhibitory effect entry at DPP-IV [1] (peptides from milk proteins) is recorded as “DPP-IV inhibitory effects”. Turning to “YYGYTGAFR [previously reported peptide from Atlantic salmon]”, the half-maximal inhibitory concentration (IC50) in the data set with DPP-IV [1] (from Atlantic salmon) is 1100 µM.

For the compound `CC(C)[C@H](N)C(=O)N[C@@H](Cc1ccc(O)cc1)C(=O)N1CCC[C@H]1C(=O)O` [VYP] (H-Val-Tyr-Pro-OH), at DPP-IV [2], the IC50 turned out to be 0.399 ± 0.0474 µM. As to `CN(C)C(=N)N=C(N)N` [Metformin], in data set [4], the “patients suffering from side effects” value is given as “around 30%”.
